Assay results taken from ChEMBL document CHEMBL1649232 (Antimicrob Agents Chemother, 2009).

Key:
[1] = Cmax in healthy human at […] parenteral dose; format: ADME, organism-based; conditions: in vivo
[2] = Drug level in sputum of healthy human between 6 to 24 hrs postdosing; format: ADME, tissue-based; conditions: in vivo

SMILES | Cmax [1] [ng/mL] | Drug uptake [2] [ng/mL]
CCC(CC)[C@H](NC(C)=O)[C@@H]1[C@H](O)[C@@H](C(=O)O)C[C@H]1NC(=N)N [PERAMIVIR ANHYDROUS] | 10000 | –
CC(=O)N[C@H]1[C@H]([C@H](O)[C@H](O)CO)OC(C(=O)O)=C[C@@H]1N=C(N)N [ZANAMIVIR] | – | 47
